ChEMBL document CHEMBL1201862, “PubChem BioAssay data set” (2004)
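How tested: cells in 96-well plates exposed to compound for 48 hours at five concentrations. GI50 is the concentration that inhibits growth by half.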 Active and inactive are the calls of the source. No stated cut-off is given here; in the data, active = GI50 up to about 1.1 µM and inactive = higher.

Legend:
Experiment in all cases: NCI anticancer screen, dose series, 48 h
[1] = test system: K562
[2] = test system: RXF 393
[3] = test system: BT-549
[4] = test system: SNB-19
[5] = test system: SK-OV-3
[6] = test system: UACC-257
[7] = test system: SK-MEL-5
[8] = test system: RPMI-8226
[9] = test system: SN12C
[10] = test system: MDA-N
[11] = test system: CAKI-1
[12] = test system: HL-60
[13] = test system: NCI-H226
[14] = test system: Hs-578T
[15] = test system: NCI-H23
[16] = test system: HOP-92
[17] = test system: SK-MEL-28
[18] = test system: NCI/ADR-RES
[19] = test system: M14

Compound	GI50 [1]	GI50 [2]	GI50 [3]	GI50 [4]	GI50 [5]	GI50 [6]	GI50 [7]	GI50 [8]	GI50 [9]	GI50 [10]	GI50 [11]	GI50 [12]	GI50 [13]	GI50 [14]	GI50 [15]	GI50 [16]	GI50 [17]	GI50 [18]	GI50 [19]
COC(=O)[C@H]1[C@@H](O)[C@@]2(O)c3c(OC)cc(OC)cc3O[C@@]2(c2ccc3c(c2)OCO3)[C@@H]1c1ccccc1	< 0.005 µM (active)	0.0647 µM (active)	0.0219 µM (active)	< 0.005 µM (active)	0.00539 µM (active)	0.00826 µM (active)	0.00757 µM (active)	< 0.005 µM (active)	0.0076 µM (active)	0.00513 µM (active)	0.00893 µM (active)	0.00629 µM (active)	0.0136 µM (active)	0.0146 µM (active)	0.00617 µM (active)	0.0408 µM (active)	0.00815 µM (active)	0.00893 µM (active)	0.00603 µM (active)
C1=N\c2ccc(cc2)-c2ccc(cc2)/N=C\c2ccccc2OCc2cccc(n2)COc2ccccc2/1	> 100 µM (inactive)	15.2 µM (inactive)	32.7 µM (inactive)	13.9 µM (inactive)	30.1 µM (inactive)	> 100 µM (inactive)	> 31.2 µM (inactive)	> 100 µM (inactive)	> 81.3 µM (inactive)	> 100 µM (inactive)	> 58.5 µM (inactive)	> 100 µM (inactive)	39.5 µM (inactive)	13.1 µM (inactive)	15.1 µM (inactive)	10.9 µM (inactive)	84.9 µM (inactive)	> 100 µM (inactive)	36.4 µM (inactive)
Cc1ccc(NC(Nc2ccc(C)cc2C)=C(/C=C(\Cl)[N+](=O)[O-])[N+](=O)[O-])c(C)c1	1.46 µM (inactive)	1.72 µM (inactive)	3.46 µM (inactive)	12.9 µM (inactive)	5.18 µM (inactive)	4.81 µM (inactive)	5.9 µM (inactive)	1.55 µM (inactive)	4.53 µM (inactive)	3.37 µM (inactive)	2.08 µM (inactive)	0.592 µM (active)	7 µM (inactive)	6.71 µM (inactive)	5.94 µM (inactive)	1.45 µM (inactive)	2.34 µM (inactive)	17.1 µM (inactive)	2.21 µM (inactive)
COc1cccc2c1Cc1cc(-c3ccccc3)[n+](C)n1-2	3.26 µM (inactive)	19 µM (inactive)	22.5 µM (inactive)	28.9 µM (inactive)	33.2 µM (inactive)	3.58 µM (inactive)	8.89 µM (inactive)	4.18 µM (inactive)	8.85 µM (inactive)	11.9 µM (inactive)	66.8 µM (inactive)	4.06 µM (inactive)	11.7 µM (inactive)	25.1 µM (inactive)	9.77 µM (inactive)	13.7 µM (inactive)	46.1 µM (inactive)	84.7 µM (inactive)	8.43 µM (inactive)
CCN(CC)c1ccc2cc(C(=O)Nc3ccccn3)c(=N)oc2c1	> 100 µM (inactive)	47.9 µM (inactive)	> 100 µM (inactive)	19.1 µM (inactive)	52 µM (inactive)	> 100 µM (inactive)	> 100 µM (inactive)	> 100 µM (inactive)	> 100 µM (inactive)	> 100 µM (inactive)	> 100 µM (inactive)	> 100 µM (inactive)	> 100 µM (inactive)	32.1 µM (inactive)	37.8 µM (inactive)	> 100 µM (inactive)	> 100 µM (inactive)	85.3 µM (inactive)	> 100 µM (inactive)
COc1cc2c3cc1Oc1c(O)c(OC)cc4c1[C@H](Cc1ccc(cc1)Oc1cc(ccc1O)C[C@H]3N(C)CC2)N(C)CC4	2.56 µM (inactive)	3.63 µM (inactive)	12.9 µM (inactive)	20.9 µM (inactive)	25.4 µM (inactive)	15 µM (inactive)	7.33 µM (inactive)	5.33 µM (inactive)	4.17 µM (inactive)	10.7 µM (inactive)	25.9 µM (inactive)	6.68 µM (inactive)	29.4 µM (inactive)	20 µM (inactive)	22.4 µM (inactive)	6.64 µM (inactive)	19.2 µM (inactive)	24.5 µM (inactive)	2.25 µM (inactive)
Cc1ccc(C(=O)Cc2nc3ncccc3[nH]c2=O)cc1	> 100 µM (inactive)	44.2 µM (inactive)	43.7 µM (inactive)	6.15 µM (inactive)	23 µM (inactive)	40.6 µM (inactive)	40.8 µM (inactive)	59 µM (inactive)	55.5 µM (inactive)	74.8 µM (inactive)	65.5 µM (inactive)	> 100 µM (inactive)	24.9 µM (inactive)	13.3 µM (inactive)	9.29 µM (inactive)	14.6 µM (inactive)	32.8 µM (inactive)	59 µM (inactive)	82.8 µM (inactive)
CC1(C)CC[C@]2(C(=O)O)[C@H](O)C[C@]3(C)C(=CC[C@@H]4[C@@]5(C)CC[C@H](OC6OC(C(=O)O)C(O)C(O)C6O)C(C)(C)[C@@H]5CC[C@]43C)[C@@H]2C1 (stereo partly specified)	95.9 µM (inactive)	26.1 µM (inactive)	18.5 µM (inactive)	52.7 µM (inactive)	> 100 µM (inactive)	> 100 µM (inactive)	> 100 µM (inactive)	> 100 µM (inactive)	27.1 µM (inactive)	> 100 µM (inactive)	> 100 µM (inactive)	22.6 µM (inactive)	> 100 µM (inactive)	28.2 µM (inactive)	> 100 µM (inactive)	20.3 µM (inactive)	18.3 µM (inactive)	> 100 µM (inactive)	> 100 µM (inactive)
O=[N+]([O-])c1cccc(CSc2nc(O)c3nc[nH]c3n2)c1	78.2 µM (inactive)	> 100 µM (inactive)	> 100 µM (inactive)	> 100 µM (inactive)	> 100 µM (inactive)	> 100 µM (inactive)	> 100 µM (inactive)	> 100 µM (inactive)	> 100 µM (inactive)	> 100 µM (inactive)	> 100 µM (inactive)	> 100 µM (inactive)	79.8 µM (inactive)	87.1 µM (inactive)	> 100 µM (inactive)	> 100 µM (inactive)	> 100 µM (inactive)	> 100 µM (inactive)	> 100 µM (inactive)
O=C(O)c1ccccc1CC(Cc1ccccc1)C(=O)O (stereo unspecified)	> 100 µM (inactive)	> 100 µM (inactive)	> 100 µM (inactive)	> 100 µM (inactive)	> 100 µM (inactive)	> 100 µM (inactive)	> 100 µM (inactive)	> 100 µM (inactive)	> 100 µM (inactive)	> 100 µM (inactive)	> 100 µM (inactive)	> 100 µM (inactive)	> 100 µM (inactive)	> 100 µM (inactive)	> 100 µM (inactive)	> 100 µM (inactive)	> 100 µM (inactive)	> 100 µM (inactive)	> 100 µM (inactive)
CC(=O)Nc1n[n+]([O-])c2cc(C)ccc2[n+]1[O-]	1.94 µM (inactive)	5.75 µM (inactive)	3.39 µM (inactive)	4.98 µM (inactive)	5.86 µM (inactive)	4.78 µM (inactive)	1.51 µM (inactive)	2.83 µM (inactive)	3.05 µM (inactive)	3.56 µM (inactive)	2.52 µM (inactive)	1.92 µM (inactive)	4.32 µM (inactive)	6.61 µM (inactive)	2.19 µM (inactive)	1.01 µM (active)	17 µM (inactive)	5.79 µM (inactive)	2.42 µM (inactive)
O=C(O)CC1OCC=C2C[N+]3([O-])CCC45c6ccccc6NC4C1C2CC53 (stereo unspecified)	> 100 µM (inactive)	> 100 µM (inactive)	> 100 µM (inactive)	> 100 µM (inactive)	> 100 µM (inactive)	> 100 µM (inactive)	> 100 µM (inactive)	> 100 µM (inactive)	> 100 µM (inactive)	> 100 µM (inactive)	> 100 µM (inactive)	> 100 µM (inactive)	> 100 µM (inactive)	> 100 µM (inactive)	> 100 µM (inactive)	> 100 µM (inactive)	> 100 µM (inactive)	> 100 µM (inactive)	> 100 µM (inactive)
NS(=O)(=O)c1ccc(NC(=O)N/N=C/c2ccccc2[N+](=O)[O-])cc1	28.8 µM (inactive)	> 100 µM (inactive)	45.4 µM (inactive)	44 µM (inactive)	45.5 µM (inactive)	79.4 µM (inactive)	65.5 µM (inactive)	30.3 µM (inactive)	32.7 µM (inactive)	19.4 µM (inactive)	44.8 µM (inactive)	46.1 µM (inactive)	42.9 µM (inactive)	46.6 µM (inactive)	41.6 µM (inactive)	65.3 µM (inactive)	61.2 µM (inactive)	33.3 µM (inactive)	25.5 µM (inactive)
CO/N=C(\C(=O)Nc1cncs1)c1csc(NC(c2ccccc2)(c2ccccc2)c2ccccc2)n1	> 10 µM (inactive)	9.55 µM (inactive)	> 10 µM (inactive)	> 10 µM (inactive)	> 10 µM (inactive)	> 10 µM (inactive)	> 10 µM (inactive)	4.52 µM (inactive)	> 10 µM (inactive)	> 10 µM (inactive)	> 10 µM (inactive)	6.85 µM (inactive)	> 10 µM (inactive)	> 10 µM (inactive)	> 10 µM (inactive)	> 10 µM (inactive)	> 10 µM (inactive)	> 10 µM (inactive)	> 10 µM (inactive)
